According to ChEMBL document CHEMBL1201862, “PubChem BioAssay data set” (2004):
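Grown in 96-well plates, cells were treated for 48 hours with each compound at five concentrations. Insufficient inhibition: endpoint recorded as highest concentration tested. Abbreviation: GI50, concentration required for 50% inhibition of growth.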 Active and inactive are the calls of the source. No stated cut-off is given here; in the data, active = GI50 up to about 1.1 µM and inactive = higher.

Experiments:
Assay in all cases: NCI-60 cell line screen, 48 h
[1] = test system: A498
[2] = test system: A549
[3] = test system: DU-145
[4] = test system: HOP-62
[5] = test system: HOP-92
[6] = test system: IGROV-1
[7] = test system: KM12
[8] = test system: MDA-MB-231
[9] = test system: NCI-H226
[10] = test system: NCI-H23
[11] = test system: NCI-H522
[12] = test system: OVCAR-3
[13] = test system: OVCAR-5
[14] = test system: RPMI-8226
[15] = test system: SF-268
[16] = test system: SK-MEL-5
[17] = test system: SNB-75
[18] = test system: SW-620
[19] = test system: UACC-62
[20] = test system: HL-60

Row | Compound | GI50 [1] | GI50 [2] | GI50 [3] | GI50 [4] | GI50 [5] | GI50 [6] | GI50 [7] | GI50 [8] | GI50 [9] | GI50 [10] | GI50 [11] | GI50 [12] | GI50 [13] | GI50 [14] | GI50 [15] | GI50 [16] | GI50 [17] | GI50 [18] | GI50 [19] | GI50 [20]
1 | O=C(Nc1sccc1S(=O)(=O)c1ccccc1)c1ccccc1 | > 100 µM (inactive) | > 100 µM (inactive) | > 100 µM (inactive) | > 70.5 µM (inactive) | > 100 µM (inactive) | > 100 µM (inactive) | > 100 µM (inactive) | > 36.1 µM (inactive) | > 100 µM (inactive) | > 100 µM (inactive) | > 100 µM (inactive) | 99.5 µM (inactive) | > 100 µM (inactive) | > 100 µM (inactive) | > 100 µM (inactive) | > 79.3 µM (inactive) | > 100 µM (inactive) | > 84.3 µM (inactive) | > 100 µM (inactive) | –
2 | CCOC(=O)c1c(SC(=O)c2ccc(Cl)cc2)n(-c2ccccc2)c(=S)n(-c2ccccc2)c1=O | > 100 µM (inactive) | > 100 µM (inactive) | > 100 µM (inactive) | > 100 µM (inactive) | > 100 µM (inactive) | > 100 µM (inactive) | > 100 µM (inactive) | > 100 µM (inactive) | > 100 µM (inactive) | > 100 µM (inactive) | > 100 µM (inactive) | > 100 µM (inactive) | > 100 µM (inactive) | – | > 100 µM (inactive) | – | > 100 µM (inactive) | > 100 µM (inactive) | > 100 µM (inactive) | > 100 µM (inactive)
3 | O=C1c2ccccc2-n2c1nc1cc(Cl)ccc1c2=O | > 100 µM (inactive) | 66.8 µM (inactive) | 24.1 µM (inactive) | 81.7 µM (inactive) | 71.6 µM (inactive) | 33.3 µM (inactive) | 39.9 µM (inactive) | > 100 µM (inactive) | > 100 µM (inactive) | 11.8 µM (inactive) | 29.9 µM (inactive) | 23 µM (inactive) | > 100 µM (inactive) | 5.04 µM (inactive) | 61.9 µM (inactive) | 20 µM (inactive) | 85.9 µM (inactive) | – | 11.2 µM (inactive) | –
4 | CC(=O)OCCn1c(Cc2ccc(Cl)cc2)nn(C(C)=O)c1=O | > 100 µM (inactive) | > 100 µM (inactive) | > 100 µM (inactive) | – | > 100 µM (inactive) | > 100 µM (inactive) | > 100 µM (inactive) | > 100 µM (inactive) | > 100 µM (inactive) | > 100 µM (inactive) | > 100 µM (inactive) | > 100 µM (inactive) | > 100 µM (inactive) | > 100 µM (inactive) | > 100 µM (inactive) | > 100 µM (inactive) | – | > 100 µM (inactive) | > 100 µM (inactive) | > 100 µM (inactive)
5 | CC(C)OC(=O)C1=C2c3ncccc3C(=O)N2[C@@H](Cl)[C@H](Cl)[C@H]1Cl | > 100 µM (inactive) | > 100 µM (inactive) | > 100 µM (inactive) | > 100 µM (inactive) | 46.3 µM (inactive) | 31.1 µM (inactive) | > 100 µM (inactive) | > 100 µM (inactive) | > 100 µM (inactive) | 46.2 µM (inactive) | 26.2 µM (inactive) | > 100 µM (inactive) | > 100 µM (inactive) | 21.8 µM (inactive) | 47.9 µM (inactive) | 83 µM (inactive) | – | 34.6 µM (inactive) | > 100 µM (inactive) | 38.2 µM (inactive)
6 | C=C1CN(Cc2ccccc2)[C@@H]2CCCCC[C@H](C#N)[C@H]12 | > 100 µM (inactive) | 78 µM (inactive) | > 100 µM (inactive) | > 69.2 µM (inactive) | 36.3 µM (inactive) | > 100 µM (inactive) | > 100 µM (inactive) | > 100 µM (inactive) | > 69.3 µM (inactive) | > 93.1 µM (inactive) | 65.8 µM (inactive) | > 93.1 µM (inactive) | > 100 µM (inactive) | 22.5 µM (inactive) | > 100 µM (inactive) | > 100 µM (inactive) | > 100 µM (inactive) | > 94.8 µM (inactive) | > 100 µM (inactive) | –
7 | CC1=CC(C2/C(=N/O)C=C(C)CC2(C)C)C(O)C(C)(C)C1 (configuration not stated) | 18 µM (inactive) | 15.5 µM (inactive) | 15 µM (inactive) | 14.9 µM (inactive) | 14.1 µM (inactive) | 17.3 µM (inactive) | 15.9 µM (inactive) | 17.3 µM (inactive) | 15.8 µM (inactive) | 16.2 µM (inactive) | – | 11.1 µM (inactive) | 19.1 µM (inactive) | 14 µM (inactive) | 18 µM (inactive) | 15.1 µM (inactive) | 14.8 µM (inactive) | 15.7 µM (inactive) | 15.2 µM (inactive) | 16 µM (inactive)
8 | CN1C(=O)NC(=O)/C(=C\Nc2ncccn2)C1=O | > 100 µM (inactive) | > 100 µM (inactive) | > 100 µM (inactive) | > 100 µM (inactive) | > 100 µM (inactive) | > 100 µM (inactive) | > 100 µM (inactive) | > 100 µM (inactive) | > 100 µM (inactive) | > 100 µM (inactive) | > 100 µM (inactive) | > 100 µM (inactive) | > 100 µM (inactive) | – | > 100 µM (inactive) | > 100 µM (inactive) | > 100 µM (inactive) | > 100 µM (inactive) | > 100 µM (inactive) | > 100 µM (inactive)
9 | COC1(OC)N=C(N)C2(C#N)C(c3ccccc3)NC3=C(CCC3)C12C#N (configuration not stated) | > 100 µM (inactive) | > 100 µM (inactive) | > 100 µM (inactive) | > 100 µM (inactive) | > 100 µM (inactive) | > 100 µM (inactive) | > 100 µM (inactive) | > 100 µM (inactive) | > 100 µM (inactive) | > 100 µM (inactive) | > 100 µM (inactive) | – | > 100 µM (inactive) | > 100 µM (inactive) | > 100 µM (inactive) | > 100 µM (inactive) | – | > 100 µM (inactive) | > 100 µM (inactive) | > 100 µM (inactive)
10 | Clc1ccc(NCc2nnc(CCCCCCCCc3nnc(CNc4ccc(Cl)cc4)o3)o2)cc1 | > 100 µM (inactive) | > 100 µM (inactive) | > 100 µM (inactive) | > 100 µM (inactive) | > 100 µM (inactive) | – | > 100 µM (inactive) | > 100 µM (inactive) | – | > 100 µM (inactive) | > 100 µM (inactive) | > 100 µM (inactive) | > 100 µM (inactive) | > 100 µM (inactive) | > 100 µM (inactive) | > 100 µM (inactive) | > 100 µM (inactive) | – | > 100 µM (inactive) | –
11 | CCCCCCCCCCCCCCCCOCC(CC(F)(F)P(=O)(OCC)OCC)OC(C)=O (configuration not stated) | 12.5 µM (inactive) | 12 µM (inactive) | 15.4 µM (inactive) | – | 10.3 µM (inactive) | 8.49 µM (inactive) | 11.6 µM (inactive) | 14.9 µM (inactive) | 14.4 µM (inactive) | 16.9 µM (inactive) | 13.1 µM (inactive) | 17.5 µM (inactive) | 18.3 µM (inactive) | 25.1 µM (inactive) | 12.6 µM (inactive) | 21.1 µM (inactive) | 17.5 µM (inactive) | 14.8 µM (inactive) | 15.3 µM (inactive) | –
12 | CCOC(=O)/C(C#N)=C/Nc1c(C)n(C)n(-c2ccccc2)c1=O | > 100 µM (inactive) | > 100 µM (inactive) | > 100 µM (inactive) | – | > 100 µM (inactive) | > 100 µM (inactive) | > 100 µM (inactive) | > 100 µM (inactive) | 43.4 µM (inactive) | > 100 µM (inactive) | > 100 µM (inactive) | > 100 µM (inactive) | > 100 µM (inactive) | > 100 µM (inactive) | – | > 100 µM (inactive) | – | > 100 µM (inactive) | > 100 µM (inactive) | > 100 µM (inactive)
13 | CCOC(=O)C(C)c1nc2cc(F)c(N3CCOCC3)cc2[nH]c1=O (configuration not stated) | > 100 µM (inactive) | > 100 µM (inactive) | > 100 µM (inactive) | > 100 µM (inactive) | > 100 µM (inactive) | > 100 µM (inactive) | > 100 µM (inactive) | > 100 µM (inactive) | > 100 µM (inactive) | > 100 µM (inactive) | > 100 µM (inactive) | > 100 µM (inactive) | > 100 µM (inactive) | 83.6 µM (inactive) | > 100 µM (inactive) | 54.1 µM (inactive) | > 100 µM (inactive) | > 100 µM (inactive) | > 100 µM (inactive) | –
14 | Nc1ccc(-c2nc3ccc(F)cc3s2)cc1I | > 100 µM (inactive) | > 100 µM (inactive) | > 100 µM (inactive) | 47.1 µM (inactive) | 24.8 µM (inactive) | < 0.01 µM (active) | > 100 µM (inactive) | > 54.2 µM (inactive) | – | > 100 µM (inactive) | > 63.1 µM (inactive) | – | 0.0515 µM (active) | > 100 µM (inactive) | > 63.8 µM (inactive) | > 74.6 µM (inactive) | 30.8 µM (inactive) | > 100 µM (inactive) | > 79.6 µM (inactive) | –
15 | C=C[C@H]1CN2CCc3c([nH]c4c([C@H]5CCCN5C)c(O)ccc34)[C@@H]2C[C@@H]1C[C@H]1c2[nH]c3ccccc3c2CCN1C [STRYCHNOPENTAMINE] | 1.63 µM (inactive) | 1.55 µM (inactive) | 1.63 µM (inactive) | 1.55 µM (inactive) | 1.58 µM (inactive) | 1.59 µM (inactive) | 1.36 µM (inactive) | 1.81 µM (inactive) | – | 1.85 µM (inactive) | 1.79 µM (inactive) | 1.58 µM (inactive) | 1.72 µM (inactive) | 0.653 µM (active) | 1.58 µM (inactive) | – | 1.14 µM (inactive) | 1.24 µM (inactive) | 1.77 µM (inactive) | 0.267 µM (active)
